The values below come from ChEMBL document CHEMBL3621136, “Design, synthesis, and biological and docking studies of novel epipodophyllotoxinchalcone hybrids as potential anticancer agents” (Medchemcomm, 2015).

For orientation: IC50 means the point on the concentration scale where inhibition reaches its midpoint.

Holding throughout (format): functional, cell-based
Assay [1] relates to SW-620. In words: Cytotoxicity against human SW620 cells assessed as growth inhibition after 48 hrs by SRB assay. The note with it: SW-620, 48 h. Background: Sulforhodamine B stains cellular protein and so reports cell mass.
For assay [2], the system named is DU-145. In words: Cytotoxicity against human DU145 cells assessed as growth inhibition after 48 hrs by SRB assay. The settings on record: DU-145, 48 h.
Assay [3] has as its system SK-N-SH. In words: Cytotoxicity against human SK-N-SH cells assessed as growth inhibition after 48 hrs by SRB assay.
For assay [4], the system named is HCT-15. In words: Cytotoxicity against human HCT15 cells assessed as growth inhibition after 48 hrs by SRB assay. The note with it: HCT-15, 48 h.
Assay [5] relates to COLO 205. In words: Cytotoxicity against human COLO205 cells assessed as growth inhibition after 48 hrs by SRB assay. The settings on record: COLO 205, 48 h.
The test system of assay [6] is HeLa. In words: Cytotoxicity against human HeLa cells assessed as growth inhibition after 48 hrs by SRB assay.

`COc1cc([C@@H]2c3cc4c(cc3[C@@H](n3cc(COc5ccc(C(C)=O)cc5)nn3)[C@H]3COC(=O)[C@H]23)OCO4)cc(OC)c1OC`: the IC50 in assay [1] was 14.6 µM; in assay [2], 13.6 µM; in assay [3], 15.6 µM; in assay [4] it was 13.5 µM; in assay [5] it was 18.8 µM; in assay [6], 18.5 µM.

On to `COc1cc([C@@H]2c3cc4c(cc3[C@@H](n3cc(COc5ccc(/C=C/C(C)=O)cc5)nn3)[C@H]3COC(=O)[C@H]23)OCO4)cc(OC)c1OC`, for which the IC50 is 10.2 µM in assay [1]; 11.3 µM in assay [2]; 14.4 µM in assay [3]; 16.3 µM in assay [4]; 7.6 µM in assay [5].

As to `COc1cc(/C=C/C(C)=O)ccc1OCc1cn([C@@H]2c3cc4c(cc3[C@@H](c3cc(OC)c(OC)c(OC)c3)[C@H]3C(=O)OC[C@@H]32)OCO4)nn1`, the IC50 turned out to be 3.41 µM in assay [1]; 10 µM in assay [3]; 10.4 µM in assay [4]; 8.98 µM in assay [5]; 3.4 µM in assay [6].

In the case of `COc1cc([C@@H]2c3cc4c(cc3[C@@H](n3cc(COc5ccc(C(=O)/C=C/c6ccccc6)cc5)nn3)[C@H]3COC(=O)[C@H]23)OCO4)cc(OC)c1OC`, the IC50 in assay [1] stood at 2.02 µM; in assay [2], 30.2 µM; in assay [3], 4.13 µM; in assay [4] it was 12.8 µM; in assay [5], 9.12 µM; in assay [6], 5.34 µM.

Consider `COc1cc([C@@H]2c3cc4c(cc3[C@@H](n3cc(COc5ccc(/C=C/C(=O)c6ccccc6)cc5)nn3)[C@H]3COC(=O)[C@H]23)OCO4)cc(OC)c1OC`, for which the IC50 in assay [1] amounted to 9.2 µM; in assay [2] it was 30 µM; in assay [3] it was 25.6 µM; in assay [4] it was 15.3 µM; in assay [5] it was 29.3 µM; in assay [6], 19.1 µM.

`COc1cc([C@@H]2c3cc4c(cc3[C@@H](n3cc(COc5ccc(C(=O)/C=C/c6ccc(F)cc6)cc5)nn3)[C@H]3COC(=O)[C@H]23)OCO4)cc(OC)c1OC`: the IC50 is 2.4 µM in assay [1]; 6.5 µM in assay [2]; 3.4 µM in assay [3]; 12 µM in assay [4]; 13.2 µM in assay [5].

With `COc1cc([C@@H]2c3cc4c(cc3[C@@H](n3cc(COc5ccc(C(=O)/C=C/c6cccc(F)c6)cc5)nn3)[C@H]3COC(=O)[C@H]23)OCO4)cc(OC)c1OC`, the IC50 is 5.21 µM in assay [1]; 13.3 µM in assay [2]; 12.4 µM in assay [3]; 15.6 µM in assay [4]; 7.32 µM in assay [5]; 14.2 µM in assay [6].

`COc1cc([C@@H]2c3cc4c(cc3[C@@H](n3cc(COc5ccc(C(=O)/C=C/c6ccccc6F)cc5)nn3)[C@H]3COC(=O)[C@H]23)OCO4)cc(OC)c1OC`: the IC50 in assay [1] is 8.12 µM; in assay [2] it was 20.2 µM; in assay [3], 6.73 µM; in assay [4], 12.9 µM; in assay [6], 17.2 µM.

On to `COc1cc([C@@H]2c3cc4c(cc3[C@@H](n3cc(COc5ccc(C(=O)/C=C/c6cccc(C)c6)cc5)nn3)[C@H]3COC(=O)[C@H]23)OCO4)cc(OC)c1OC`, for which the IC50 came out at 6.53 µM in assay [1]; 9.36 µM in assay [2]; 7.13 µM in assay [3]; 8.23 µM in assay [5]; 12.2 µM in assay [6].

With `COc1ccc(/C=C/C(=O)c2ccc(OCc3cn([C@@H]4c5cc6c(cc5[C@@H](c5cc(OC)c(OC)c(OC)c5)[C@H]5C(=O)OC[C@@H]54)OCO6)nn3)cc2)cc1`, the IC50 is 11.2 µM in assay [1]; 10.2 µM in assay [2]; 7.32 µM in assay [3]; 6.12 µM in assay [4]; 12.3 µM in assay [5].

With `COc1cc([C@@H]2c3cc4c(cc3[C@@H](n3cc(COc5ccc(C(C)=O)cc5)nn3)[C@H]3COC(=O)[C@H]23)OCO4)cc(OC)c1O`, the IC50 in assay [1] amounted to 11.6 µM; in assay [2], 16.6 µM; in assay [3], 11.6 µM; in assay [4] it was 12 µM; in assay [5], 14.8 µM; in assay [6], 18.9 µM.

As to `COc1cc([C@@H]2c3cc4c(cc3[C@@H](n3cc(COc5ccc(/C=C/C(C)=O)cc5)nn3)[C@H]3COC(=O)[C@H]23)OCO4)cc(OC)c1O`, the IC50 in assay [1] stood at 7.5 µM; in assay [2], 12 µM; in assay [3], 10.3 µM; in assay [4], 6.82 µM; in assay [6] it was 13.1 µM.

As to `COc1cc(/C=C/C(C)=O)ccc1OCc1cn([C@@H]2c3cc4c(cc3[C@@H](c3cc(OC)c(O)c(OC)c3)[C@H]3C(=O)OC[C@@H]32)OCO4)nn1`, the IC50 stood at 5.66 µM in assay [1]; 6.5 µM in assay [2]; 5.45 µM in assay [3]; 12.4 µM in assay [4]; 18.2 µM in assay [5]; 5 µM in assay [6].

Consider `COc1cc([C@@H]2c3cc4c(cc3[C@@H](n3cc(COc5ccc(C(=O)/C=C/c6ccccc6)cc5)nn3)[C@H]3COC(=O)[C@H]23)OCO4)cc(OC)c1O`, for which the IC50 is 0.64 µM in assay [1]; 12 µM in assay [2]; 0.66 µM in assay [3]; 9.5 µM in assay [4]; 12.3 µM in assay [5]; 5.9 µM in assay [6].

On to `COc1cc([C@@H]2c3cc4c(cc3[C@@H](n3cc(COc5ccc(/C=C/C(=O)c6ccccc6)cc5)nn3)[C@H]3COC(=O)[C@H]23)OCO4)cc(OC)c1O`, for which the IC50 in assay [1] worked out at 4.4 µM; in assay [2], 5.45 µM; in assay [3], 8.3 µM; in assay [4], 6.75 µM; in assay [6], 9.18 µM.

As for `COc1cc([C@@H]2c3cc4c(cc3[C@@H](n3cc(COc5ccc(C(=O)/C=C/c6ccc(F)cc6)cc5)nn3)[C@H]3COC(=O)[C@H]23)OCO4)cc(OC)c1O`, the IC50 worked out at 0.35 µM in assay [1]; 12 µM in assay [2]; 0.39 µM in assay [3]; 12.4 µM in assay [4]; 12.5 µM in assay [5]; 4.5 µM in assay [6].

On to `COc1cc([C@@H]2c3cc4c(cc3[C@@H](n3cc(COc5ccc(C(=O)/C=C/c6cccc(F)c6)cc5)nn3)[C@H]3COC(=O)[C@H]23)OCO4)cc(OC)c1O`, for which the IC50 is 5.36 µM in assay [1]; 7.4 µM in assay [2]; 4.5 µM in assay [3]; 5.15 µM in assay [5]; 6.4 µM in assay [6].

`COc1cc([C@@H]2c3cc4c(cc3[C@@H](n3cc(COc5ccc(C(=O)/C=C/c6ccccc6F)cc5)nn3)[C@H]3COC(=O)[C@H]23)OCO4)cc(OC)c1O`: the IC50 came out at 12.6 µM in assay [1]; 9.34 µM in assay [2]; 7.4 µM in assay [3]; 15.2 µM in assay [4]; 12.3 µM in assay [5].

Regarding `COc1cc([C@@H]2c3cc4c(cc3[C@@H](n3cc(COc5ccc(C(=O)/C=C/c6cccc(C)c6)cc5)nn3)[C@H]3COC(=O)[C@H]23)OCO4)cc(OC)c1O`, the IC50 in assay [1] came to 11.5 µM; in assay [2], 20.5 µM; in assay [3] it was 13.5 µM; in assay [4], 12.2 µM; in assay [5], 15.4 µM; in assay [6], 9.32 µM.

`COc1ccc(/C=C/C(=O)c2ccc(OCc3cn([C@@H]4c5cc6c(cc5[C@@H](c5cc(OC)c(O)c(OC)c5)[C@H]5C(=O)OC[C@@H]54)OCO6)nn3)cc2)cc1`: the IC50 in assay [1] worked out at 10.3 µM; in assay [2], 12.5 µM; in assay [3] it was 15.6 µM; in assay [4], 7.45 µM; in assay [6], 6.8 µM.

As to `COc1cc([C@@H]2c3cc4c(cc3[C@@H](O[C@@H]3O[C@@H]5CO[C@@H](C)O[C@H]5[C@H](O)[C@H]3O)[C@H]3COC(=O)[C@H]23)OCO4)cc(OC)c1O` [ETOPOSIDE], the IC50 came to 13.2 µM in assay [1]; 16.4 µM in assay [2]; 9.03 µM in assay [3]; 12.2 µM in assay [4]; 14.2 µM in assay [5]; 10.4 µM in assay [6].
